# Laboratory results: patent US7063844B2, “Presentation of hydrophobic antigens to T-cells by CD1 molecules” (The Brigham and Women's Hospital, Inc., priority 1992, dated 2006)
# Like-named read-outs stand apart in the source and are kept apart here.
# B1: Il-10: cytokine strongly expressed in lepromatous lesions (protein, UniProt P22301 19-178, looked up)
# Interleukin-10: SPGQGTQSENSCTHFPGNLPNMLRDLRDAFSRVKTFFQMKDQLDNLLLKESLLEDFKGYLGCQALSEMIQFYLEEVMPQAENQDPDIKAHVNSLGENLKTLRLRLRRCHRFLPCENKSKAVEQVKNAFNKLQEKGIYKAMSEFDIFINYIEAYMTMKIRN
# B2: interferon-γ: cytokine, 100 U/ml (protein, UniProt P01579 24-161, looked up)
# Interferon gamma: QDPYVKEAENLKKYFNAGHSDVADNGTLFLGILKNWKEESDRKIMQSQIVSFYFKLFKNFKDDQSIQKSVETIKEDMNVKFFNSNKKKRDDFEKLTNYSVTDLNVQRKAIHELIQVMAELSPAAKTGKRKRSQMLFRG
# Assays:
# T-cell line DN1 = assay type: cell-based, human; settings: CD1+ APCs (GM-CSF- and IL-4-treated monocytes)
# T-cell line DG.1 = assay type: cell-based, human; settings: CD1+ PBMCs from HLA-DR7 positive individual as APCs
# [1] = system: T-cell lines SP-F3, CP.1.15, BK6; experiment: Proliferation of further T-cell lines to test mitogenicity (SP-F3, CP.1.15, BK6); assay type: cell-based, human
# T-cell line OAB8 = experiment: Proliferation assay, CD8+ TCR αβ+ line OAB8; assay type: cell-based, human; settings: mycolic acid at 1 μg/ml
# T-cell line DN6 = experiment: Proliferation assay, CD1c-restricted line DN6; assay type: cell-based, human; settings: CD1+ APCs
# T-cell line OGD1 = experiment: Proliferation assay, TCR γδ+ line OGD1; assay type: cell-based, human; settings: activated monocytes, 3 day assay
# T-cell line LDN4 = experiment: Proliferation of CD1b-restricted line LDN4; assay type: cell-based, human
# [2] = system: peripheral blood monocytes; experiment: CD1 expression on cytokine-cultured monocytes, flow cytometry; assay type: cell-based, human; settings: for expression of CD1a, CD1b and CD1c on monocytes: monocytes cultured with cytokine, 60 hours
# T-cell line BDN2 = assay type: cell-based, human
# [3] = in vivo; cited from earlier work
molecule,measurement,setting,value
mycolic acid,proliferative response of T-cell line DN1 to antigen,T-cell line DN1,recognized
same,recognition by T-cell line DG.1 (proliferative response),T-cell line DG.1,recognized only by CD1b-restricted DN1 T-cells
same,"proliferative response of SP-F3, CP.1.15 and BK6",[1],did not respond
same,mitogenicity,[1]; six T-cell lines tested,not mitogenic
same,response of OAB8 to antigen,T-cell line OAB8,recognized
same,recognition by T-cell line DN6 (proliferative response),T-cell line DN6,recognized only by CD1b-restricted DN1 T-cells
same,response of OGD1 to antigen,T-cell line OGD1,recognized
CCCCCCCCCCCCCCCCCCCCCC(=O)OC[C@H]1O[C@H](O[C@H]2O[C@H](COC(=O)CCCCCCCCCCCCCCCCCCCCC)[C@@H](O)[C@H](O)[C@H]2O)[C@H](O)[C@@H](O)[C@@H]1O [trehalose dibehanate],proliferative response of T-cell line DN1 to antigen,T-cell line DN1,no stimulation
mycolic acid-arabinogalactan-peptidoglycan [mAGP],proliferative response of LDN4 to antigen,T-cell line LDN4,No response
phosphatidylinositol mannoside [PIM],proliferative response of LDN4 to antigen,T-cell line LDN4,ten-fold more than media alone
GM-CSF: granulocyte/monocyte colony stimulating factor used alone,"expression of CD1a, CD1b and CD1c on monocytes",[2],somewhat less
lipoarabinomannan [LAM],response of BDN2 to antigen,T-cell line BDN2,responded
same,proliferative response of LDN4 to antigen,T-cell line LDN4,proliferated
same,proliferative response of LDN4 to antigen,T-cell line LDN4; listed as Lep LAM,stimulated
same,proliferative response of LDN4 to antigen,T-cell line LDN4; listed as native LAM,striking T-cell proliferation
"6,6-trehalose dimycolate",proliferative response of T-cell line DN1 to antigen,T-cell line DN1,stimulated the proliferation
same,antibody formation,[3],enhance antibody formation
same,nonspecific immunity to bacterial infections and tumors,[3],stimulate nonspecific immunity
B1,inhibition of the expression of CD1 on monocytes,[2]; data not shown,could inhibit
B2,"expression of CD1a, CD1b and CD1c on monocytes",[2],did not express significant levels
